Test results as given in patent publication US8158372B2, “Agonists of a bitter taste receptor and uses thereof” (Deutsches Institut für Ernährungsforschung Potsdam-Rehbrücke, priority 2004, dated 2012).
Counter-ions that a name gives are not always drawn. Like-named read-outs stand apart in the source and are kept apart here.

How the values were obtained:
hTAS2R14 = target: T1, hTAS2R14 (Homo sapiens, UniProt Q9NYV8)
T1 sequence (Q9NYV8 1-317): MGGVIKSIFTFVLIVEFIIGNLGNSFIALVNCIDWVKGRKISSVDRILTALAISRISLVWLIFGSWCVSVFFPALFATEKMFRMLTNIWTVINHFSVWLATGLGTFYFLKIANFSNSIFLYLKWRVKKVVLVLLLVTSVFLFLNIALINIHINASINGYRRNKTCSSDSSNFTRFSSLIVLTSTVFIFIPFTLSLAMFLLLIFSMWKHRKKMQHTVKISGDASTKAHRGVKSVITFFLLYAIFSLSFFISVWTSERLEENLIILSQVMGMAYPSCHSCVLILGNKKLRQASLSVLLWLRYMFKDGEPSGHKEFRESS

hTAS2R4 = target: T2, hTAS2R4 (Homo sapiens, UniProt Q9NYW5); conditions: denatonium at high doses; Chandrashekar et al. 2000; cited from earlier work
T2 sequence (Q9NYW5 1-299): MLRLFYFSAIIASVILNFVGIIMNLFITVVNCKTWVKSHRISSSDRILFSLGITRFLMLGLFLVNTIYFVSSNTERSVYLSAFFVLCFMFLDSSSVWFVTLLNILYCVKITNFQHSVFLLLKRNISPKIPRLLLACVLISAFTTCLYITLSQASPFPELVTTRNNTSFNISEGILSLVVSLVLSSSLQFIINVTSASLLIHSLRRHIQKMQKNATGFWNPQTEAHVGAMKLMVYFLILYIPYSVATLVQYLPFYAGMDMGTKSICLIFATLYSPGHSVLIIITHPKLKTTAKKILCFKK

rTAS2R9 = target: T3, rTAS2R9 (Rattus norvegicus, UniProt Q9JKT5); conditions: Bufe et al. 2002; cited from earlier work
T3 sequence (Q9JKT5 1-309): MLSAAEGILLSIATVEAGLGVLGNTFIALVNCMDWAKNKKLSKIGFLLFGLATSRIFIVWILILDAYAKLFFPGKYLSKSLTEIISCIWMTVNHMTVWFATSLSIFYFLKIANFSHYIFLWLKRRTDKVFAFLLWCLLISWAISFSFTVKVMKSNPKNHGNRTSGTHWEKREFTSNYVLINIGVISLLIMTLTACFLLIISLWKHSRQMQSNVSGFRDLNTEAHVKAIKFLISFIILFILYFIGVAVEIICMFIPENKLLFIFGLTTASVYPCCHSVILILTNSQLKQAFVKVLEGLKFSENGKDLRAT

mTAS2R5 = target: T4, mTAS2R5 (Mus musculus, UniProt Q9JKT4); conditions: Chandrashekar et al. 2000; cited from earlier work
T4 sequence (Q9JKT4 1-300): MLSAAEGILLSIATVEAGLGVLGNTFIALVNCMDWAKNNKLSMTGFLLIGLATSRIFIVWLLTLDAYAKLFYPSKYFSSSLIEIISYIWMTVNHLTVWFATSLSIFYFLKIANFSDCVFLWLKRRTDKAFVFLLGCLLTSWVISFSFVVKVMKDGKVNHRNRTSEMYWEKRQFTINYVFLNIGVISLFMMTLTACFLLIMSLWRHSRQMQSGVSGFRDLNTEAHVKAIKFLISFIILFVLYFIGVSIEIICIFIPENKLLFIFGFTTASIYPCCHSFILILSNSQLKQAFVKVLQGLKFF

mTAS2R8 = target: T5, mTAS2R8 (Mus musculus, UniProt Q9JKT3); conditions: denatonium at high doses; Chandrashekar et al. 2000; cited from earlier work
T5 sequence (Q9JKT3 1-297): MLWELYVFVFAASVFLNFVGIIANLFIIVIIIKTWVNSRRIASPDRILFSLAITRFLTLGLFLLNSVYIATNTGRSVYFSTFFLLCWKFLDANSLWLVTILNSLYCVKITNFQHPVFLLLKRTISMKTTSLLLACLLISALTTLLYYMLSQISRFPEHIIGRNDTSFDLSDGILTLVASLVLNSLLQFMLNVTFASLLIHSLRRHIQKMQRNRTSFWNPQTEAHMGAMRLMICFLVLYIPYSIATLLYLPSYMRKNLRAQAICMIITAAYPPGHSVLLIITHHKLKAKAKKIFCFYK

[1] = increase of intracellular calcium (fluorescence) in hTAS2R14 transfected cells, traces only shown as drawings, Table 1 A

CN1CCCC1c1cccnc1 (single isomer, unassigned; (-)) [(−)-nicotine]
response (hTAS2R14; conc 10 μM): n.r.

C1CCN2C[C@H]3CC(CN4CCCC[C@@H]34)[C@H]2C1 (single isomer, unassigned; (-)) [(−)-sparteine]
response (hTAS2R14): n.r.

O=Cc1cccc2cccc(C(=O)O)c12 [1,8-naphthaldehydic acid]
activation of hTAS2R14 (agonist) (hTAS2R14; [1]): agonist

O=C(O)c1cccc2ccccc12 [1-naphthoic acid]
activation of hTAS2R14 (agonist) (hTAS2R14; [1]): agonist

O=[N+]([O-])c1cccc2ccccc12 [1-nitronaphthalene]
activation of hTAS2R14 (agonist) (hTAS2R14): agonist

CCCc1cc(=O)[nH]c(=S)[nH]1 [6-propyl-2-thiouracil (PROP), 6-propyl-2-thiouracil]
response (hTAS2R14; conc 100 μM): n.r.
receptor response (hTAS2R4): to a lesser extend

c1ccc2c(c1)CCc1ccccc1-2 [9,10-dihydrophenanthrene]
response (hTAS2R14; conc 5 μM): n.r.

N[C@H](Cc1ccccc1)C(=O)O [D-phenylalanine]
response (hTAS2R14; conc 10000 μM): n.r.

N[C@@H](Cc1ccccc1)C(=O)O [L-phenylalanine]
response (hTAS2R14; conc 10000 μM): n.r.

CCN(CCCc1ccccc1)CCCc1ccccc1.O=C(O)CC(O)(CC(=O)O)C(=O)O [alverine citrate salt]
response (hTAS2R14; conc 50 μM): n.r.

Cc1cc(=O)n(-c2ccccc2)n1C [antipyrine]
response (hTAS2R14): n.r.

CN1C2CCC1CC(OC(=O)C(CO)c1ccccc1)C2 (stereo not drawn) [atropine]
response (hTAS2R14): n.r.

O=C(c1ccccc1)C(O)c1ccccc1 (stereo not drawn) [benzoin]
response (hTAS2R14): n.r.

O=C(O)/C=C/c1ccc(O)c(O)c1 [caffeic acid]
response (hTAS2R14; conc 30 μM): n.r.

Cn1c(=O)c2c(ncn2C)n(C)c1=O [caffeine]
response (hTAS2R14; conc 3000 μM): n.r.

CCCC(C)(COC(N)=O)COC(=O)NC(C)C (stereo not drawn) [carisoprodol]
response (hTAS2R14): n.r.

O=C(N[C@H](CO)[C@H](O)c1ccc([N+](=O)[O-])cc1)C(Cl)Cl [chloramphenicol]
response (hTAS2R14; conc 30 μM): n.r.

COc1cc2c(c(OC)c1OC)-c1ccc(OC)c(=O)cc1[C@@H](NC(C)=O)CC2 [colchicine]
response (hTAS2R14): n.r.

O=C([O-])c1cc(=O)c2c(OCC(O)COc3cccc4oc(C(=O)[O-])cc(=O)c34)cccc2o1.[Na+].[Na+] [cromolyn sodium salt]
response (hTAS2R14; conc 5000 μM): n.r.

C[C@@H]1C[C@@H]([C@H](O)CC2CC(=O)NC(=O)C2)C(=O)[C@@H](C)C1 [cycloheximide]
response (hTAS2R14): n.r.
receptor response (rTAS2R9): respond
receptor response (mTAS2R5): respond

CC[N+](CC)(CC(=O)Nc1c(C)cccc1C)Cc1ccccc1 [denatonium]
receptor response (mTAS2R8): respond
receptor response (hTAS2R4): respond

CC(=O)OC1C[C@H]2[C@H](C)C(=O)O[C@@H]2/C=C(\C)CC/C=C/1C (stereo partly drawn) [herbolide A]
activation of hTAS2R14 (agonist) (hTAS2R14; [1]): agonist

C=C1C(OC(C)=O)CC/C(C)=C/[C@H]2OC(=O)[C@@H](C)[C@@H]2CC1OC(C)=O (stereo partly drawn) [herbolide D acetate]
activation of hTAS2R14 (agonist) (hTAS2R14; [1]): agonist

C=C1C(=O)OC2C3O[C@]3(C)CC/C=C(\C)CC(O)[C@@H]12 (stereo partly drawn) [hydroxy-8α-parthenolide]
activation of hTAS2R14 (agonist) (hTAS2R14; [1]): agonist

C=C1C(=O)O[C@H]2[C@H]1CC/C(C)=C/CC[C@@]1(C)O[C@@H]21 [parthenolide]
activation of hTAS2R14 (agonist) (hTAS2R14; [1]): agonist

NC(=S)Nc1ccccc1 [phenylthiocarbamide (PTC), phenylthiocarbamide]
response (hTAS2R14): n.r.

CC(C)(O)[C@@H]1[C@H]2OC(=O)[C@@H]1[C@]1(O)C[C@H]3O[C@]34C(=O)O[C@H]2[C@]14C [picrotin]
activation of hTAS2R14 (agonist) (hTAS2R14): agonist

C=C(C)[C@@H]1[C@H]2OC(=O)[C@@H]1[C@]1(O)C[C@H]3O[C@]34C(=O)O[C@H]2[C@]14C [picrotoxinin]
activation of hTAS2R14 (agonist) (hTAS2R14): agonist

O=C(O)c1ccc2c(c1)OCO2 [piperonylic acid]
activation of hTAS2R14 (agonist) (hTAS2R14): agonist

CC1CCC2[C@@H]1C1CC(O)[C@H](C)C1CC[C@@]2(C)O (stereo partly drawn) [pseudo-artabsine]
activation of hTAS2R14 (agonist) (hTAS2R14; [1]): agonist

C=C[C@H]1CN2CC[C@H]1C[C@H]2[C@H](O)c1ccnc2ccc(OC)cc12 [quinine sulfate dihydrate]
response (hTAS2R14; conc 50 μM): n.r.

O=C([O-])c1ccccc1.[Na+] [sodium benzoate]
activation of hTAS2R14 (agonist) (hTAS2R14): agonist

(−)-α-thujone
activation of hTAS2R14 (agonist) (hTAS2R14): agonist

ouabain
response (hTAS2R14): n.r.

strychnine nitrate
response (hTAS2R14): n.r.
